“And” between values parts separate entries of the source, which are not always exact repeats. Equal values may be shown once. Where a name gives a salt, the structure may show the parent alone. Read-outs that look alike come from different tables or passages of the source.
Tests used:
[1] = in vivo; details: mouse, ip
Source text: Tumors used in these studies--P388 leukemia and its doxorbicin--and mitoxanrone-resistant sublines, L1210 leukemia, B16 melanoma, B16 melanoma/F10 subline, M5076 sarcoma and colon carcinoma 26--are maintained by serial transplantation in syngeneic strains of mice. For the leukemias, these tumors are maintained in DBA/2 mice. The M5076 sarcoma, the B16 melanoma and its F10 subline are maintained in C57B1/6 mice and the colon sarcinoma 26 is maintained in BALB/c mice. The leukemias and the M5076 sarcoma are serially transplanted i.p. as ascites cell suspensions while the B16 melanoma lines and the colon carcinoma 26 are serially transplanted as s.c. solid tumors.
For therapeutic trials, tumors are aseptically removed from donor mice and prepared as suspensions for implantation ip into test animals. The test animals for the colon carcinoma 26 are female BALB/c mice (20-25 gm). The test animals for the other tumor models are syngeneic female F1 hybrid B6D2F1 mice (C57B1/6 x DBA/2). The inoculum level varies with the type of tumor: P388 leukemia is inoculated at 10^6 cells per mouse, L1210 leukemia at 10^5 or 10^6 cells per mouse, M5076 sarcoma at 5×10^6 cells per mouse. For implantation of the B16 melanoma lines and the colon carcinoma 26, s.c. tumors from donor mice are minced and homogenized in loose fitting teflon glass homogenizer to give a tumor brei. The inoculum levels are 0.5 ml of a 10 percent (w:v) brei of the B16 melanoma lines and 0.5 ml of a 5 percent (w:v) brei of colon carcinoma 26. After tumor inoculation, mice randomized to treatment groups comprised of 6-8 mice each. In each experiment, there are three groups of untreated control mice. Drugs are dissolved or suspended in appropriate aqueous vehicles and given by a variety of routes and schedules of administration over a range of dose levels. Animals are housed in shoebox cages and are monitored daily for mortality for 30 (L1210), 45 (P388) or 60 (B16, M5076, colon 26) days.

[2] = system: sc colon adenocarcinoma 38
Description: Inhibition of tumor growth (TGI) is based on mean tumor volume of groups of 7 or 8 mice relative to untreated controls. Tumors were measured between Days 12 and 19 (except Day 24 for Colon 51 and Day 31 for Colon 38).
Tumors used in these studies are maintained by serial transplantation in syngeneic strains of mice C57BL/6 for Lewis lung carcinoma, B16 melanoma and its F10 subline, M5076 sarcoma and colon adenocarcinoma 38; BALB/c for colon carcinoma 26, ADJ-PC6 plasmacytoma Madison lung carcinoma and colon adenocarcinoma 51, C3H for mammary adenocarcinoma 16/c. With the exception of the M5076 sarcoma, which is maintained as a i.p ascites cell suspension, all of the tumors were serially transplanted as s.c. solid tumors.
For therapeutic trials, tumors were aseptically removed from donor mice and prepared for implantation s.c. into test animals. The test animals for Lewis lung carcinoma, B16 melanoma and its F10 subline, M5076 sarcoma and colon adenocarcinoma 38 are syngeneic female F1 hybrid B6D2F mice (C57B1/6×DBA/2). ADJ-PC6 plasmacytoma and colon carcinoma 26 are evaluated in female BALB/c mice. Madison lung carcinoma and colon adenocarcinoma 51 are evaluated in syngeneic female F1 hybrid CD2F1 mice (BALB/c×DBA/2). Mammary adenocarcinoma 16/c is evaluated in female C3H mice. The inoculum varies with the tumor. Colon adenocarcinomas 38 is implanted as 2 mm fragments by trochar. M5076 sarcoma and ADJ-PC6 plasmacytoma are implanted as cell suspensions at 5×10^6 and 2×10^6 cells per mouse, respectively. Colon carcinoma 26, colon adenocarcinoma 51, Lewis lung carcinoma, Madison lung carcinoma and B16 melanoma and its F10 subline are implanted as tumor breis prepared as described above in a volume of 0.5 ml. The brei concentration was 10 percent (w:v) except for colon carcinoma 26 for which the brei concentration was 5 percent (w:v). After tumor inoculation, mice are randomized to treatment groups of 7 or 8 mice. In each experiment, there are three groups of untreated control mice.
Drugs are dissolved or suspended in appropriate aqueous vehicles and given by a variety of routes of administration and treatment schedules over a range of dosage levels. Animals are housed in shoebox cages and are monitored daily for mortality. […] Time for tumor measurement is dependent on the different rates of tumor growth of the different tumors: the most rapidly growing tumors such as the Lewis and Madison lung tumors, B16 melanoma and its F10 subline were measured between Days 12 and 16. The slower growing tumors were measured at later time points--17 days for M5076 sarcoma, 16 or 19 days for mammary adenocarcinoma 16/c, 19 days for ADJ-PC6 plasmacytoma and colon carcinoma 26, 24 days for colon adenocarcinoma 51, and 31 days for colon adenocarcinoma 38.

[3] = system: sc Lewis lung carcinoma; format: in vivo, mouse; details: mouse, in vivo
Source text: (§1) The inoculum varies with the tumor.

[4] = system: sc colon adenocarcinoma 51; format: in vivo, mouse; details: sc Colon 51; for Mice without Palpable Tumors: G/ip
Source text: as §1

SMILES: CC[C@@]1(O)C(=O)OCc2c1cc1n(c2=O)Cc2cc3c(CN(C)C)c(O)ccc3nc2-1 [Compound No. 1S, (20 S) 9-Dimethylaminomethyl-10-hydroxycamptothecin Acetate Salt]
- MTD [1]: 15 mg/kg
- inhibition at two dose levels ([2]; mouse, in vivo): > 90
- Mice without Palpable Tumors ([2]; mouse, in vivo, 0.78 mg/kg): 2/7
- Mice without Palpable Tumors ([2]; mouse, in vivo, 1.3 mg/kg): 4/7
- Mice without Palpable Tumors ([2]; mouse, in vivo, 2.2 mg/kg): 4/7
- Mice without Palpable Tumors ([2]; mouse, in vivo, 3.6 mg/kg): 6/7
- Mice without Palpable Tumors ([2]; mouse, in vivo, 6 mg/kg): 5/7
- Increase in Lifespan (ILS) or Inhibition of Tumor Growth (TGI) ([2]; mouse, in vivo, sc): 96 % TGI
- Tumor growth inhibition (TGI) ([2]; sc Colon 38, G/ip (Days 3, 10, 17 and 24), 3.1 mg/kg/injection): 0%
- Tumor growth inhibition (TGI) ([2]; sc Colon 38, G/ip (Days 3, 10, 17 and 24), 5.2 mg/kg/injection): 0%
- Tumor growth inhibition (TGI) ([2]; sc Colon 38, G/ip (Days 3, 10, 17 and 24), 8.6 mg/kg/injection): 55%
- Tumor growth inhibition (TGI) ([2]; sc Colon 38, G/ip (Days 3, 10, 17 and 24), 14 mg/kg/injection): 78%
- Tumor growth inhibition (TGI) ([2]; sc Colon 38, G/ip (Days 3, 10, 17 and 24), 24 mg/kg/injection): 89%
- Mice without Palpable Tumors ([2]; sc Colon 38, G/ip, 3.1 mg/kg/injection): 2/7
- Mice without Palpable Tumors ([2]; sc Colon 38, G/ip, 5.2 mg/kg/injection): 1/7
- Mice without Palpable Tumors ([2]; sc Colon 38, G/ip, 8.6 mg/kg/injection): 3/7
- Mice without Palpable Tumors ([2]; sc Colon 38, G/ip, 14 mg/kg/injection): 5/8
- Mice without Palpable Tumors ([2]; sc Colon 38, G/ip, 24 mg/kg/injection): 4/7
- Tumor growth inhibition (TGI) ([2]; sc Colon 38, H/ip (every 3 hours x4 on Days 3, 10, 14 and 24), 0.78 mg/kg/injection): 53%
- Tumor growth inhibition (TGI) ([2]; sc Colon 38, H/ip (every 3 hours x4 on Days 3, 10, 14 and 24), 1.3 mg/kg/injection): 68%
- Tumor growth inhibition (TGI) ([2]; sc Colon 38, H/ip (every 3 hours x4 on Days 3, 10, 14 and 24), 2.2 mg/kg/injection): 74%
- Tumor growth inhibition (TGI) ([2]; sc Colon 38, H/ip (every 3 hours x4 on Days 3, 10, 14 and 24), 3.6 mg/kg/injection): 93%
- Tumor growth inhibition (TGI) ([2]; sc Colon 38, H/ip (every 3 hours x4 on Days 3, 10, 14 and 24), 6 mg/kg/injection): 96%
- bioavailability upon oral administration [3]: excellent bioavailability upon oral administration
- Tumor growth inhibition (TGI) ([3]; 3.2 mg/kg): 31%
- Mice without Palpable Tumors ([3]; 5.4 mg/kg, Acetate Salt): 2/8 and 4/8
- Tumor growth inhibition (TGI) ([3]; 5.4 mg/kg, Acetate Salt): 68% and 87%
- Tumor growth inhibition (TGI) ([3]; 5.8 mg/kg): 51%
- longterm, tumorfree survivors ([3]; 9 mg/kg): 2/8
- Tumor growth inhibition (TGI) ([3]; 9 mg/kg, Acetate Salt): 99% and 93%
- Mice without Palpable Tumors ([3]; 9.7 mg/kg): 2/8
- Tumor growth inhibition (TGI) ([3]; 9.7 mg/kg): 89%
- Tumor growth inhibition (TGI) ([3]; 15 mg/kg): 95%
- longterm, tumorfree survivors ([3]; 15 mg/kg): 4 of 8
- Mice without Palpable Tumors ([3]; 15 mg/kg, Acetate Salt): 8/8 and 3/8
- Tumor growth inhibition (TGI) ([3]; 15 mg/kg, Acetate Salt): 100%
- longterm, tumorfree survivors ([3]; 15 mg/kg, Acetate Salt): 4/8
- Mice without Palpable Tumors ([3]; 16 mg/kg): 1/8
- Tumor growth inhibition (TGI) ([3]; 16 mg/kg): 90%
- Mice without Palpable Tumors ([3]; 25 mg/kg): 5/8
- Tumor growth inhibition (TGI) ([3]; 25 mg/kg): toxic
- Mice without Palpable Tumors ([3]; 27 mg/kg): 4/8
- Tumor growth inhibition (TGI) ([3]; 45 mg/kg): toxic
- Increase in Lifespan (ILS) or Inhibition of Tumor Growth (TGI) ([3]; sc): Curative
- Tumor growth inhibition (TGI) ([4]; G/ip (Days 3, 10, 17 and 24), 3.1 mg/kg/injection): 34%
- Tumor growth inhibition (TGI) ([4]; G/ip (Days 3, 10, 17 and 24), 5.2 mg/kg/injection): 36%
- Tumor growth inhibition (TGI) ([4]; G/ip (Days 3, 10, 17 and 24), 8.6 mg/kg/injection): 53%
- Tumor growth inhibition (TGI) ([4]; G/ip (Days 3, 10, 17 and 24), 14 mg/kg/injection): 76%
- Tumor growth inhibition (TGI) ([4]; G/ip (Days 3, 10, 17 and 24), 24 mg/kg/injection): 88%
- Mice without Palpable Tumors ([4]; 8.6 mg/kg/injection): 1/8
- Mice without Palpable Tumors ([4]; 14 mg/kg/injection): 1/8
- Mice without Palpable Tumors ([4]; 24 mg/kg/injection): 3/8
- Tumor growth inhibition (TGI) ([4]; H/ip (every 3 hours x4 on Days 3, 10, 14 and 24), 0.47 mg/kg/injection): 37%

Source: patent publication US5004758A, “Water soluble camptothecin analogs useful for inhibiting the growth of animal tumor cells” (priority 1988, dated 1991)
